# Experimental data reported in patent publication US9707305B2, “Formulas for diagnosing and treating hormone-dependent cancers and cancers of the organs responsible for steroid hormone synthesis” (Commissariat à l'énergie atomique et aux énergies …, priority 2011, dated 2017).
# Test: Biodistribution of the nano-emulsion of Example 1.1 in male mice (Tables 15 to 21)
# Format: in vivo
# Conditions: FVB male mouse
# Experimental: In the following examples, the radioactivity was counted with the TRiCarb Counter (Ref: Packard, Liquid Scintillation Analyzers; Models 2200CA).
# Fluobeam 700 (Fluoptics) is the apparatus with which the whole of the organs from the biodistribution were analyzed in fluorescence as well as the one with which the biodistribution kinetics of the nano-emulsions were established in vivo. This imaging system allows viewing of the fluorescence in spectral bands from 700 to 850 nm for a 650 nm excitation. The apparatus consists of an electric case containing the laser of class 3B, its power supply and an optical head containing the CCD camera. […]
smiles,measurement,setting,value
"CCCCCCCCCCCCCCCCO[C@H]1CC[C@@]2(C)C(=CC[C@H]3[C@@H]4CC[C@H]([C@H](C)CCCC(C)C)[C@@]4(C)CC[C@@H]32)C1 [[3H]CHE, cholesteryl hexadecylether]",tracer in Adrenal gland,2 h,10.16 percentage of the dose injected per gram of tissue
same,tracer in Adrenal gland,4 h,16.96 percentage of the dose injected per gram of tissue
same,tracer in Adrenal gland,6 h,13.399 percentage of the dose injected per gram of tissue
same,tracer in Adrenal gland,16 h,32.89 percentage of the dose injected per gram of tissue
same,tracer in Adrenal gland,24 h,17.41 percentage of the dose injected per gram of tissue
same,tracer in Adrenal gland,48 h,25.12 percentage of the dose injected per gram of tissue
same,tracer in Adrenal gland,72 h,46.41 percentage of the dose injected per gram of tissue
same,tracer in Brain,2 h,0.35 percentage of the dose injected per gram of tissue
same,tracer in Brain,4 h,0.23 percentage of the dose injected per gram of tissue
same,tracer in Brain,6 h,0.24 percentage of the dose injected per gram of tissue
same,tracer in Brain,16 h,0.18 percentage of the dose injected per gram of tissue
same,tracer in Brain,24 h,0.11 percentage of the dose injected per gram of tissue
same,tracer in Brain,48 h,0.10 percentage of the dose injected per gram of tissue
same,tracer in Brain,72 h,0.11 percentage of the dose injected per gram of tissue
same,tracer in Fat,2 h,1.14 percentage of the dose injected per gram of tissue
same,tracer in Fat,4 h,0.74 percentage of the dose injected per gram of tissue
same,tracer in Fat,6 h,1.234 percentage of the dose injected per gram of tissue
same,tracer in Fat,16 h,1.70 percentage of the dose injected per gram of tissue
same,tracer in Fat,24 h,0.83 percentage of the dose injected per gram of tissue
same,tracer in Fat,48 h,0.94 percentage of the dose injected per gram of tissue
same,tracer in Fat,72 h,0.70 percentage of the dose injected per gram of tissue
same,tracer in Heart,2 h,9.84 percentage of the dose injected per gram of tissue
same,tracer in Heart,4 h,7.57 percentage of the dose injected per gram of tissue
same,tracer in Heart,6 h,8.52 percentage of the dose injected per gram of tissue
same,tracer in Heart,16 h,8.50 percentage of the dose injected per gram of tissue
same,tracer in Heart,24 h,5.76 percentage of the dose injected per gram of tissue
same,tracer in Heart,48 h,6.05 percentage of the dose injected per gram of tissue
same,tracer in Heart,72 h,7.83 percentage of the dose injected per gram of tissue
same,tracer in Intestine,2 h,2.44 percentage of the dose injected per gram of tissue
same,tracer in Intestine,4 h,1.98 percentage of the dose injected per gram of tissue
same,tracer in Intestine,6 h,2.549 percentage of the dose injected per gram of tissue
same,tracer in Intestine,16 h,5.19 percentage of the dose injected per gram of tissue
same,tracer in Intestine,24 h,3.41 percentage of the dose injected per gram of tissue
same,tracer in Intestine,48 h,3.50 percentage of the dose injected per gram of tissue
same,tracer in Intestine,72 h,3.47 percentage of the dose injected per gram of tissue
same,tracer in Kidney,2 h,5.29 percentage of the dose injected per gram of tissue
same,tracer in Kidney,4 h,3.14 percentage of the dose injected per gram of tissue
same,tracer in Kidney,6 h,3.336 percentage of the dose injected per gram of tissue
same,tracer in Kidney,16 h,2.40 percentage of the dose injected per gram of tissue
same,tracer in Kidney,24 h,1.80 percentage of the dose injected per gram of tissue
same,tracer in Kidney,48 h,1.77 percentage of the dose injected per gram of tissue
same,tracer in Kidney,72 h,1.82 percentage of the dose injected per gram of tissue
same,tracer in Liver,2 h,22.67 percentage of the dose injected per gram of tissue
same,tracer in Liver,4 h,17.25 percentage of the dose injected per gram of tissue
same,tracer in Liver,6 h,22.609 percentage of the dose injected per gram of tissue
same,tracer in Liver,16 h,40.91 percentage of the dose injected per gram of tissue
same,tracer in Liver,24 h,30.93 percentage of the dose injected per gram of tissue
same,tracer in Liver,48 h,24.53 percentage of the dose injected per gram of tissue
same,tracer in Liver,72 h,24.97 percentage of the dose injected per gram of tissue
same,tracer in Lung,2 h,5.08 percentage of the dose injected per gram of tissue
same,tracer in Lung,4 h,2.98 percentage of the dose injected per gram of tissue
same,tracer in Lung,6 h,3.771 percentage of the dose injected per gram of tissue
same,tracer in Lung,16 h,5.31 percentage of the dose injected per gram of tissue
same,tracer in Lung,24 h,2.88 percentage of the dose injected per gram of tissue
same,tracer in Lung,48 h,3.02 percentage of the dose injected per gram of tissue
same,tracer in Lung,72 h,3.04 percentage of the dose injected per gram of tissue
same,tracer in Muscle,2 h,0.99 percentage of the dose injected per gram of tissue
same,tracer in Muscle,4 h,0.56 percentage of the dose injected per gram of tissue
same,tracer in Muscle,6 h,0.77 percentage of the dose injected per gram of tissue
same,tracer in Muscle,16 h,0.97 percentage of the dose injected per gram of tissue
same,tracer in Muscle,24 h,0.38 percentage of the dose injected per gram of tissue
same,tracer in Muscle,48 h,0.63 percentage of the dose injected per gram of tissue
same,tracer in Muscle,72 h,0.49 percentage of the dose injected per gram of tissue
same,tracer in Ovary,"Ovary, 24 h",1.71 percentage of the dose injected per gram of tissue
same,tracer in Pancreas,2 h,1.64 percentage of the dose injected per gram of tissue
same,tracer in Pancreas,4 h,1.50 percentage of the dose injected per gram of tissue
same,tracer in Pancreas,6 h,1.67 percentage of the dose injected per gram of tissue
same,tracer in Pancreas,16 h,1.92 percentage of the dose injected per gram of tissue
same,tracer in Pancreas,24 h,1.31 percentage of the dose injected per gram of tissue
same,tracer in Pancreas,48 h,0.99 percentage of the dose injected per gram of tissue
same,tracer in Pancreas,72 h,1.12 percentage of the dose injected per gram of tissue
same,tracer in Salivary gland,2 h,1.53 percentage of the dose injected per gram of tissue
same,tracer in Salivary gland,4 h,1.26 percentage of the dose injected per gram of tissue
same,tracer in Salivary gland,6 h,2.10 percentage of the dose injected per gram of tissue
same,tracer in Salivary gland,16 h,2.68 percentage of the dose injected per gram of tissue
same,tracer in Salivary gland,24 h,1.57 percentage of the dose injected per gram of tissue
same,tracer in Salivary gland,48 h,2.07 percentage of the dose injected per gram of tissue
same,tracer in Salivary gland,72 h,2.36 percentage of the dose injected per gram of tissue
same,tracer in Seminal gland,4 h,0.50 percentage of the dose injected per gram of tissue
same,tracer in Seminal gland,6 h,0.54 percentage of the dose injected per gram of tissue
same,tracer in Seminal gland,16 h,0.64 percentage of the dose injected per gram of tissue
same,tracer in Seminal gland,24 h,0.35 percentage of the dose injected per gram of tissue
same,tracer in Seminal gland,48 h,0.35 percentage of the dose injected per gram of tissue
same,tracer in Seminal gland,72 h,0.58 percentage of the dose injected per gram of tissue
same,tracer in Seminal glands,"Seminal glands, 2 h",0.79 percentage of the dose injected per gram of tissue
same,tracer in Spleen,2 h,7.15 percentage of the dose injected per gram of tissue
same,tracer in Spleen,4 h,5.31 percentage of the dose injected per gram of tissue
same,tracer in Spleen,6 h,6.453 percentage of the dose injected per gram of tissue
same,tracer in Spleen,16 h,9.19 percentage of the dose injected per gram of tissue
same,tracer in Spleen,24 h,6.65 percentage of the dose injected per gram of tissue
same,tracer in Spleen,48 h,11.18 percentage of the dose injected per gram of tissue
same,tracer in Spleen,72 h,6.40 percentage of the dose injected per gram of tissue
same,tracer in Testicle,2 h,1.36 percentage of the dose injected per gram of tissue
same,tracer in Testicle,4 h,1.35 percentage of the dose injected per gram of tissue
same,tracer in Testicle,6 h,2.000 percentage of the dose injected per gram of tissue
same,tracer in Testicle,16 h,2.95 percentage of the dose injected per gram of tissue
same,tracer in Testicle,48 h,2.97 percentage of the dose injected per gram of tissue
same,tracer in Testicle,72 h,4.34 percentage of the dose injected per gram of tissue
